Experimental data from the supplement of paper PMC10307832.

Compound: Cc1nc(C(=O)NCC(=O)O)c(O)c2ccc(Oc3ccccc3)cc12 [FG-4592] + Cc1cc(Nc2cc(N3CCN(C)CC3)nc(Sc3ccc(NC(=O)C4CC4)cc3)n2)n[nH]1 [Tozasertib] (partner 0.1 µM)
Assay: relative viability (nuclei count vs DMSO), 5 days (fraction); higher = more cells survive
Conditions: first compound 0.08 µM
In short: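 Relative viability divides the nuclei count in treated wells by that in vehicle wells. Lung cancer cell lines were seeded in 1536-well plates, dosed by pin tool the next day, and fixed and stained after 5 days in one step with final 0.05% Triton X-100, 1% formaldehyde and 1 ug/ml Hoechst. Dosing was a single drug or a fixed anchor-drug dose plus five library-drug doses (not always all listed) in √10 steps, and values are medians of duplicate plates imaged at 4×.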

Cell Line	relative viability
NCI-H2009	0.715
A-427	0.21
NCI-H441	0.679
NCI-H661	0.365
NCI-H1734	0.284
NCI-H460	0.381
NCI-H2347	0.415
SK-LU-1	0.317
NCI-H1395	0.775
201T	0.856
NCI-H1915	0.405
HCC-827	0.385
LXF-289	0.186
NCI-H23	0.412
NCI-H647	0.365
CAL-12T	0.335

Cell Line	relative viability
NCI-H1651	0.773
EPLC-272H	0.24
NCI-H2228	0.276
NCI-H1355	0.525
NCI-H3122	0.38
NCI-H1437	0.397
NCI-H1755	0.56
NCI-H2023	0.354
HCC-15	0.333
NCI-H1793	0.435
PC-14	0.674
EKVX	0.397
LC-2-ad	0.545
NCI-H1944	0.254
NCI-H1975	0.772

Same assay, conditions: first compound 0.253 µM

Cell Line	relative viability
HARA	0.138
NCI-H322M	0.46
LCLC-97TM1	0.214
NCI-H2009	0.58
A-427	0.223
NCI-H441	0.521
NCI-H661	0.371
NCI-H1734	0.267
NCI-H460	0.419
SK-LU-1	0.331
NCI-H1395	0.728
201T	0.965
NCI-H1915	0.439
HCC-827	0.372
LXF-289	0.16
NCI-H23	0.4
NCI-H647	0.302

Cell Line	relative viability
CAL-12T	0.267
NCI-H1651	0.653
EPLC-272H	0.286
NCI-H2228	0.262
NCI-H1355	0.551
NCI-H3122	0.361
NCI-H1437	0.384
NCI-H1755	0.51
NCI-H2023	0.357
HCC-15	0.42
NCI-H1793	0.388
PC-14	0.55
EKVX	0.403
LC-2-ad	0.433
NCI-H1944	0.252
NCI-H1975	0.78

Same assay, conditions: first compound 0.8 µM

Cell Line	relative viability
HARA	0.0931
NCI-H322M	0.442
LCLC-97TM1	0.23
NCI-H2009	0.758
A-427	0.201
NCI-H441	0.712
NCI-H661	0.347
NCI-H1734	0.256
NCI-H460	0.42
NCI-H2347	0.621
SK-LU-1	0.295
NCI-H1395	0.702
201T	1.06
NCI-H1915	0.497
HCC-827	0.369
LXF-289	0.214

Cell Line	relative viability
NCI-H23	0.418
NCI-H647	0.311
CAL-12T	0.312
NCI-H1651	0.742
EPLC-272H	0.204
NCI-H2228	0.226
NCI-H1355	0.55
NCI-H3122	0.348
NCI-H1437	0.458
NCI-H1755	0.568
NCI-H2023	0.374
HCC-15	0.395
PC-14	0.651
EKVX	0.47
NCI-H1944	0.224
NCI-H1975	0.868

Same assay, conditions: first compound 2.53 µM

Cell Line	relative viability
HARA	0.115
NCI-H322M	0.518
LCLC-97TM1	0.244
NCI-H2009	0.713
A-427	0.206
NCI-H441	0.619
NCI-H661	0.359
NCI-H1734	0.252
NCI-H460	0.592
NCI-H2347	0.315
SK-LU-1	0.31
NCI-H1395	0.75
201T	0.998
NCI-H1915	0.444
HCC-827	0.457
LXF-289	0.177
NCI-H23	0.346

Cell Line	relative viability
NCI-H647	0.264
CAL-12T	0.293
NCI-H1651	0.629
EPLC-272H	0.378
NCI-H2228	0.288
NCI-H1355	0.573
NCI-H3122	0.418
NCI-H1437	0.375
NCI-H1755	0.678
NCI-H2023	0.348
HCC-15	0.391
NCI-H1793	0.362
PC-14	0.596
EKVX	0.412
LC-2-ad	0.421
NCI-H1944	0.242
NCI-H1975	0.783

Same assay, conditions: first compound 8 µM

Cell Line	relative viability
HARA	0.104
NCI-H322M	0.396
LCLC-97TM1	0.18
NCI-H2009	0.655
A-427	0.224
NCI-H441	0.688
NCI-H661	0.343
NCI-H1734	0.217
NCI-H460	0.487
NCI-H2347	0.52
SK-LU-1	0.273
NCI-H1395	0.791
201T	0.946
NCI-H1915	0.369
HCC-827	0.406
LXF-289	0.205
NCI-H23	0.431

Cell Line	relative viability
NCI-H647	0.166
CAL-12T	0.29
NCI-H1651	0.569
EPLC-272H	0.271
NCI-H2228	0.225
NCI-H1355	0.521
NCI-H3122	0.35
NCI-H1437	0.33
NCI-H1755	0.655
NCI-H2023	0.258
HCC-15	0.444
NCI-H1793	0.317
PC-14	0.682
EKVX	0.387
LC-2-ad	0.465
NCI-H1944	0.254
NCI-H1975	0.683
